# Test results as given in US11970448B2, “Monomers capable of dimerizing in an aqueous solution, and methods of using same” (CORNELL UNIVERSITY, priority 2011, dated 2024).
# Biological target: T1, recominbant human tryptase, beta, from lung (Homo sapiens, UniProt P20231)
# T1 construct: purchased Promega or Enzo Life Sciences G5631 or BML-SE418
# Assay: Inhibition of tryptase activity by monomers and multimers (Boc-Gln-Ala-Arg-AMC fluorescence)
# Type: biochemical
# Conditions: monomers against tryptase; read-out: IC50 range group of additional monomers (boronic acid, benzooxaborole, ligands)
# How it was run: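 Recombinant human lung β-tryptase (1 nM final; stock with heparin sulfate and 1 M NaCl) preincubated with test substance, then 200 μM Boc-Gln-Ala-Arg-AMC added in 50 mM HEPES, 150 mM NaCl, 100 μM EDTA, 0.02% Tween-20, pH 7.4. AMC fluorescence (ex 367/em 468 nm) read every 30 s for 15–30 min; IC50 from Vmax concentration-response curves.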
# T1 sequence (P20231 31-275): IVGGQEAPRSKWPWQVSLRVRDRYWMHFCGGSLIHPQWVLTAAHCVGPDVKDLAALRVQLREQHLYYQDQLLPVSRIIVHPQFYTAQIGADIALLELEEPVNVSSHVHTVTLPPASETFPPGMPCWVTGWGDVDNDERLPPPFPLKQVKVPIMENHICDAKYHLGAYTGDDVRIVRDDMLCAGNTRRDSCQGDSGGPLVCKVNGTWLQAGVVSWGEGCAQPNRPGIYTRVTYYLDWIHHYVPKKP
smiles,measurement,value
CC(C)(C)ONC(=O)c1cc(C(=O)N2CCC3(CC2)COc2ccc(CN)cc23)ccc1O [T920TBSPIRO],IC50,1 to 10 µM
